Laboratory results published in patent US20240336629A1, “Tricyclic Derivatives Useful As PARP7 Inhibitors” (JACOBIO PHARMACEUTICALS CO., LTD., priority 2021, published 2024).

Columns and labels:
PARP7 enzyme = PARP7 enzyme (Homo sapiens (Human), UniProt Q7Z3E1); assay: PARP7 enzymatic experiment (HTRF assay); type: biochemical; conditions: 4PL fit
[1] = tested on: lung cancer cell line H1373 (high expression of PARP7); assay: Lung cancer cell proliferation inhibition experiment (CTG method); type: cell-based; conditions: H1373 cells, 144 hrs incubation, Cell Titer Glo

Chain of PARP7 enzyme (Q7Z3E1 456-657): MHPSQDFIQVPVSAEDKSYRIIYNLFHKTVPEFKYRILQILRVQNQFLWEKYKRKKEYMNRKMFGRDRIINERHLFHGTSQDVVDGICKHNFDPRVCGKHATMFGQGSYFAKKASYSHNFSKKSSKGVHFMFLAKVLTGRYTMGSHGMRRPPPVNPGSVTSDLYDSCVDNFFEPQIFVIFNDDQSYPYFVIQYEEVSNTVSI

Structure (SMILES) | IC50 (PARP7 enzyme) [µM] | IC50 [1] [µM] | IC50 ([1]; Homo sapiens, NCI-H1373, 144 h) [µM]
C[C@@H](COCCC(=O)N1CCN2c3ncc(C(F)(F)F)cc3[S@+]([O-])CC[C@@H]2C1)Nc1cn[nH]c(=O)c1C(F)(F)F [Compound 74A] | 0.00216 |  | 
C[C@@H](COCCC(=O)N1CCN2c3ncc(Br)cc3SCC[C@H]2C1)Nc1cn[nH]c(=O)c1C(F)(F)F (single isomer, unassigned) [Compound 72A] | 0.000837 | 0.0133 | 
CC(OCCC(=O)N1CCN2c3ncc(C(F)(F)F)cc3N(C)C(=O)C2C1)[C@@H]1CCN1c1cn[nH]c(=O)c1C(F)(F)F (stereo partly shown) [Compound 96] | 0.00327 | 0.0221 | 
CC(=O)c1c(N[C@@H](C)COCCC(=O)N2CCN3c4ncc(C(F)(F)F)cc4OCC[C@@H]3C2)cn[nH]c1=O (single isomer, unassigned) [Compound 70B] | 0.00754 | 0.342 | 
CC(C)N1C(=O)[C@H]2CN(C(=O)CCOC[C@H](C)Nc3cn[nH]c(=O)c3C(F)(F)F)CCN2c2ncc(C(F)(F)F)cc21 (single isomer, unassigned) [Compound 24B] | 0.00317 |  | 
C[C@@H](COCCC(=O)N1CCN2c3ncc(C(F)(F)F)cc3N(C)CC2C1)Nc1cn[nH]c(=O)c1C(F)(F)F (stereo partly shown) [Compound 39] |  |  | 0.108
C[C@@H](COCCC(=O)N1CCN2c3ncc(C(F)(F)F)cc3NC(=O)CC2C1)Nc1cn[nH]c(=O)c1C(F)(F)F (stereo partly shown) [Compound 1A] | 0.0343 |  | 
CCN1C(=O)[C@@H]2CN(C(=O)CCOC[C@H](C)Nc3cn[nH]c(=O)c3C(F)(F)F)CCN2c2ncc(Cl)cc21 [Compound 22A] | 0.000846 |  | 0.139
C[C@@H](COCCC(=O)N1CCN2c3ncc(C(F)(F)F)cc3[S@+]([O-])CC[C@H]2C1)Nc1cn[nH]c(=O)c1C(F)(F)F [Compound 74B] | 0.00223 |  | 
C[C@H](COCCC(=O)N1CCN2c3ncc(Cl)cc3N(C)C(=O)[C@H]2C1)Nc1cn[nH]c(=O)c1C(F)(F)F [Compound 82B] | 0.000892 |  | 0.0216
C[C@@H](COCCC(=O)N1CCn2c(cc3cc(C(F)(F)F)cnc32)C1)Nc1cn[nH]c(=O)c1C(F)(F)F [Compound 41] |  |  | 0.276
O=C(CCOC[C@@H]1CCN1c1cn[nH]c(=O)c1C(F)(F)F)N1CCN2c3ncc(C(F)(F)F)cc3OC[C@@H]2C1 [Compound 89A] | 0.000696 |  | 0.0106
COc1ccc(Cn2ncc(N3CC(C)(C)[C@H]3COCCC(=O)N3CCN4c5ncc(C(F)(F)F)cc5N(C)C(=O)[C@@H]4C3)c(C(F)(F)F)c2=O)cc1 (single isomer, unassigned) [Compound 95A] | 0.00357 | 0.0399 | 
CCN1C(=O)[C@H]2CN(C(=O)CCOC[C@H](C)Nc3cn[nH]c(=O)c3C(F)(F)F)CCN2c2ncc(Cl)cc21 [Compound 22B] | 0.000969 |  | 0.0641
C[C@@H](COCCC(=O)N1CCN2c3ncc(C(F)(F)F)cc3C(O)CC2C1)Nc1cn[nH]c(=O)c1C(F)(F)F (stereo partly shown) [Compound 80] | 0.000946 | 0.151 | 
C[C@@H](COCCC(=O)N1CCN2c3ncc(Br)cc3N(C)C(=O)[C@@H]2C1)Nc1cn[nH]c(=O)c1C(F)(F)F [Compound 21A] | 0.000424 |  | 0.0809
C[C@@H](COCCC(=O)N1CCN2c3ncc(Br)cc3N(C)C(=O)[C@H]2C1)Nc1cn[nH]c(=O)c1C(F)(F)F [Compound 21B] | 0.000812 |  | 0.0436
COc1ccc(Cn2ncc(N3CC[C@H]3COCCC(=O)N3CCN4c5ncc(C(F)(F)F)cc5N(C)C(=O)[C@@H]4C3)c(C(F)(F)F)c2=O)cc1 (single isomer, unassigned) [Compound 87A] |  | 0.0058 | 
C[C@@H](COCCC(=O)N1CCn2c(c(Cl)c3cc(C(F)(F)F)cnc32)C1)Nc1cn[nH]c(=O)c1C(F)(F)F [Compound 42] |  |  | 0.138
C[C@@H](COCCC(=O)N1CCN2c3nc(F)c(Cl)cc3N(C)C(=O)[C@H]2C1)Nc1cn[nH]c(=O)c1C(F)(F)F [Compound 14B] | 0.0399 |  | 
CCN1C(=O)[C@@H]2CN(C(=O)CCOC[C@H](C)Nc3cn[nH]c(=O)c3C(F)(F)F)CCN2c2ncc(Br)cc21 (single isomer, unassigned) [Compound 23A] | 0.000804 |  | 0.117
C[C@H](COCCC(=O)N1CCN2c3ncc(C(F)(F)F)cc3N(C)C(=O)[C@H]2C1)Oc1cn[nH]c(=O)c1C(F)(F)F [Compound 81D] |  | 0.0123 | 
COc1ccc(Cn2ncc(N3CC(C)(C)[C@H]3COCCC(=O)N3CCN4c5ncc(C(F)(F)F)cc5N(C)C(=O)[C@H]4C3)c(C(F)(F)F)c2=O)cc1 (single isomer, unassigned) [Compound 95B] | 0.00588 | 0.0485 | 
O=C(CCOC[C@@H]1CCN1c1cn[nH]c(=O)c1C(F)(F)F)N1CCN2c3ncc(C(F)(F)F)cc3C(F)(F)C[C@H]2C1 [Compound 93B] | 0.00209 |  | 0.0104
COc1ccc(Cn2ncc(N3CC[C@H]3COCCC(=O)N3CCN4c5ncc(C(F)(F)F)cc5N(C)C(=O)[C@H]4C3)c(C(F)(F)F)c2=O)cc1 (single isomer, unassigned) [Compound 87B] |  | 0.00535 | 
C[C@@H](COCCC(=O)N1CCN2c3ncc(C(F)(F)F)cc3[C@@](C)(O)[C@@H]2C1)Nc1cn[nH]c(=O)c1C(F)(F)F [Compound 79A] | 0.00725 |  | 0.572
C[C@@H](COCCC(=O)N1CCN2c3ncc(C(F)(F)F)cc3N(C)C(=O)[C@H]2C1)Nc1cn[nH]c(=O)c1Cl [Compound 31B] | 0.059 |  | 

Structure (SMILES) | IC50 (PARP7 enzyme) [µM] | IC50 [1] [µM] | IC50 ([1]; Homo sapiens, NCI-H1373, 144 h) [µM]
C[C@@H]1C[C@@H]2CN(C(=O)CCOC[C@@H]3CCN3c3cn[nH]c(=O)c3C(F)(F)F)CCN2c2ncc(C(F)(F)F)cc21 (single isomer, unassigned) [Compound 94A] | 0.00237 | 0.00851 | 
C[C@@H](COCCC(=O)N1CCN2c3ncc(C(F)(F)F)cc3N(CC(F)(F)F)C(=O)C2C1)Nc1cn[nH]c(=O)c1C(F)(F)F (stereo partly shown) [Compound 8] |  |  | 0.203
CN1C(=O)[C@H]2CN(C(=O)CCOC[C@@H]3CCN3c3cn[nH]c(=O)c3C(F)(F)F)CCN2c2ncc(Cl)cc21 [Compound 88B] | 0.000446 |  | 0.00294
C[C@@H](COCCC(=O)N1CCN2c3ncc(C(F)(F)F)cc3SCC[C@H]2C1)Nc1cn[nH]c(=O)c1C(F)(F)F (single isomer, unassigned) [Compound 71B] | 0.0149 | 0.912 | 
C[C@@H](COCCC(=O)N1CCN2c3ncc(C(F)(F)F)cc3[S@@+]([O-])CC[C@H]2C1)Nc1cn[nH]c(=O)c1C(F)(F)F [Compound 74D] | 0.0722 |  | 
C[C@H]1C[C@@H]2CN(C(=O)CCOC[C@@H]3CCN3c3cn[nH]c(=O)c3C(F)(F)F)CCN2c2ncc(C(F)(F)F)cc21 (single isomer, unassigned) [Compound 94C] | 0.0021 | 0.00703 | 
C[C@@H](COCCC(=O)N1CCN2c3ncc(C(F)(F)F)cc3OC[C@H]2C1)Nc1cn[nH]c(=O)c1C(F)(F)F [Compound 53A] |  |  | 0.296
C[C@@H](COCCC(=O)N1CCN2c3ncc(C(F)(F)F)cc3OCCC2C1)Nc1cn[nH]c(=O)c1C(F)(F)F (stereo partly shown) [Compound 54] |  |  | 0.0636
C[C@@H](COCCC(=O)N1CCN2c3ncc(C(F)(F)F)cc3N(C)C(=O)[C@@H]2C1)Nc1cn[nH]c(=O)c1Br [Compound 32A] | 0.00825 |  | 
C[C@@H](COCCC(=O)N1CCN2c3ncc(Br)cc3SCC[C@@H]2C1)Nc1cn[nH]c(=O)c1C(F)(F)F (single isomer, unassigned) [Compound 72B] | 0.00724 |  | 
C[C@@H](COCCC(=O)N1CCN2c3ncc(C(F)(F)F)cc3N(C)CCC2C1)Nc1cn[nH]c(=O)c1C(F)(F)F (stereo partly shown) [Compound 40] |  |  | 0.26
Cc1c2n(c3ncc(C(F)(F)F)cc13)CCN(C(=O)CCOC[C@H](C)Nc1cn[nH]c(=O)c1C(F)(F)F)C2 [Compound 43] |  |  | 0.105
C[C@@H](COCCC(=O)N1CCN2c3ncc(C(F)(F)F)cc3[S@@+]([O-])CC[C@@H]2C1)Nc1cn[nH]c(=O)c1C(F)(F)F [Compound 74C] | 0.0554 |  | 
C[C@@H](COCCC(=O)N1CCN2c3ncc(C(F)(F)F)cc3OC[C@@H]2C1)Nc1cn[nH]c(=O)c1C(F)(F)F [Compound 53B] |  |  | 0.214
C[C@@H](COCCC(=O)N1CCN2c3ncc(C(F)(F)F)cc3N(C)C(=O)[C@H]2C1)Nc1cn[nH]c(=O)c1Br [Compound 32B] | 0.02 |  | 
CC(COCCC(=O)N1CCN2c3ncc(Cl)cc3OCCC2C1)Oc1cn[nH]c(=O)c1C(F)(F)F (stereo not shown) [Compound 84] | 0.00401 |  | 
C[C@@H](COCCC(=O)N1CCN2c3ncc(Cl)cc3SCC[C@H]2C1)Nc1cn[nH]c(=O)c1C(F)(F)F (single isomer, unassigned) [Compound 73B] | 0.0179 |  | 
C[C@@H](COCCC(=O)N1CCN2c3ncc(C(F)(F)F)cc3S(=O)(=O)CC[C@@H]2C1)Nc1cn[nH]c(=O)c1C(F)(F)F [Compound 75A] | 0.00364 |  | 
C[C@@H](COCCC(=O)N1CCc2c(c(=O)n(C)c3cc(C(F)(F)F)cnc23)C1)Nc1cn[nH]c(=O)c1C(F)(F)F [Compound 12] | 0.00292 |  | 
C[C@@H](COC[C@H](O)C(=O)N1CCN2c3ncc(Cl)cc3OCCC2C1)Nc1cn[nH]c(=O)c1C(F)(F)F (stereo partly shown) [Compound 64B] | 0.00946 |  | 
C[C@@H](COCCC(=O)N1CCn2c(nc3cc(C(F)(F)F)cnc32)C1)Oc1cn[nH]c(=O)c1C(F)(F)F [Compound 49A] |  |  | 0.185
C[C@@H](COCCC(=O)N1CCN2c3ncc(C(F)(F)F)cc3OCC2C1)Nc1cn[nH]c(=O)c1C(F)(F)F (stereo partly shown) [Compound 53] |  |  | 0.0797
C[C@@H](COCCC(=O)N1CCN2c3ncc(C(F)(F)F)cc3N(C)C(=O)[C@@H]2C1)Nc1cn[nH]c(=O)c1Cl [Compound 31A] | 0.0258 |  | 
C[C@H](COCCC(=O)N1CCN2c3ncc(C(F)(F)F)cc3N(C)C(=O)[C@@H]2C1)Oc1cn[nH]c(=O)c1C(F)(F)F [Compound 81C] |  | 0.0192 | 
C[C@@H](COCCC(=O)N1CCN2c3ncc(C(F)(F)F)cc3NCCC2C1)Nc1cn[nH]c(=O)c1C(F)(F)F (stereo partly shown) [Compound 37] |  |  | 0.203
C[C@@H](COCCC(=O)N1CCN2c3ncc(C(F)(F)F)cc3S(=O)(=O)CC[C@H]2C1)Nc1cn[nH]c(=O)c1C(F)(F)F [Compound 75B] | 0.0135 |  | 
C[C@@H](COCCC(=O)N1CCN2c3ncc(C(F)(F)F)cc3C(C)(O)CC2C1)Nc1cn[nH]c(=O)c1C(F)(F)F (stereo partly shown) [Compound 78] | 0.00283 |  | 
